What is called ΔTm is the change in melting temperature against a reference sample.

The target in test [1] is T1, PAPD5 (Homo sapiens, UniProt Q8NDF8).
T1 construct: made in house
Nature of the test: DSF binding assay (shift in temperature). Particulars: shift in temperature at 100 μM of the compound. The procedure: (§1) Qualitative measure of RNA oligo-extension inhibition for the tested compounds, expressed as range from minimal activity (0) to that of compound 1 (+++), and results of a DSF binding assay (shown as shift in temperature at 100 μM of the compound) are shown in the Table 2 below.

Test [2] has as its target T1, PAPD5. Nature of the test: RNA oligo-adenylation (oligo-extension) inhibition assay with recombinant PAPD5. In kind it is biochemical. As to conditions: qualitative measure of RNA oligo-extension inhibition, relative to compound 1. The arrangement: key: minimal activity (0); range from minimal activity (0) to that of compound 1 (+++); range from minimal activity (0) to that of compound 1 (+++); that of compound 1 (+++). The method, then:
An in vitro RNA polyadenylation assay using recombinant PAPD5, ATP and an oligonucleotide substrate utilized the following phenomenon: ATP utilization by PAPD5 reads out as a decreased luminescence signal produced by luciferase (KinaseGlo, Promega, Madison, WI).
as §1

T1 sequence (Q8NDF8 68-698 isoform Q8NDF8-5 limits assumed): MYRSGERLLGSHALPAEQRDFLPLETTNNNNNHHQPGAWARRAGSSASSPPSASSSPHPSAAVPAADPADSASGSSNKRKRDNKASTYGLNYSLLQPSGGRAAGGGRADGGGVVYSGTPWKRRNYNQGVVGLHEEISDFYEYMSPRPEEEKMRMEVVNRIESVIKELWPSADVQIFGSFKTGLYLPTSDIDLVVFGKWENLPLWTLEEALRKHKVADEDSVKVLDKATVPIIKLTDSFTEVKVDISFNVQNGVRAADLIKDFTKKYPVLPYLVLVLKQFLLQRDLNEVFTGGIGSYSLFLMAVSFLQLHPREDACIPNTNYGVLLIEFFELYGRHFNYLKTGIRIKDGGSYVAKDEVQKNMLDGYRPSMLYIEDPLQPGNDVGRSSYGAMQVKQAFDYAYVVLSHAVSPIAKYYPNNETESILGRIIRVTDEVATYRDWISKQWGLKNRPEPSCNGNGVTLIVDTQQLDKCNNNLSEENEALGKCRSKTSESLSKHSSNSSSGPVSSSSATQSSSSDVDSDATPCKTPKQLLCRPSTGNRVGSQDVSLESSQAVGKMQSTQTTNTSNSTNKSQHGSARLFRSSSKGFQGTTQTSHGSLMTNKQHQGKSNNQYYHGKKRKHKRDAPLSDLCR

In the case of `COc1cccc(Nc2c(S(=O)(=O)N3CCN(C(=O)OCc4ccccc4)CC3)cnc3ccc(Br)cc23)c1C(=O)O` [Compound 93A-INT, 2-[[3-(4-benzyloxycarbonylpiperazin-1-yl)sulfonyl-6-bromo-4-quinolyl]amino]-6-methoxy-benzoic acid], the ΔTm at 100 µM on PAPD5 [1] was 0 °C. Take `CCOC(=O)c1cnc2ccc(-c3cccc4[nH]ccc34)cc2c1Nc1ccccc1C(=O)O` [Compound 23A, 2-[[3-ethoxycarbonyl-6-(1H-indol-4-yl)-4-quinolyl]amino]benzoic acid]: the “Inhibition of PAPD5 RNA oligo adenylation” value (from here on “Inhibition”) at PAPD5 [2] was “+++”. In addition, on PAPD5 [1], the thermal shift (ΔTm) at 100 µM stood at 4.6 °C. With `COCCCOc1cc2ncc(C#N)c(Nc3ccccc3C(=O)O)c2cc1OC` [Compound 51A, 2-[[3-cyano-6-methoxy-7-(3-methoxypropoxy)-4-quinolyl]amino]benzoic acid], the “Inhibition” value on PAPD5 [2] is on record as “+”. For the same compound, the ΔTm at 100 µM at PAPD5 [1] was 7.9 °C. With `CCOC(=O)c1cnc2ccc(OC(F)(F)F)cc2c1Nc1ncccc1C(=O)O` [Compound 1A, 2-[[3-ethoxycarbonyl-6-(trifluoromethoxy)-4-quinolyl]amino]pyridine-3-carboxylic acid], the “Inhibition” value at PAPD5 [2] is given as 0. Also, the ΔTm at 100 µM on PAPD5 [1] turned out to be 0.4 °C.

As for `O=C(O)c1cccnc1Nc1c(C(=O)O)cnc2ccc(OC(F)(F)F)cc12` [Compound 28A, 4-[(3-carboxy-2-pyridyl)amino]-6-(trifluoromethoxy)quinoline-3-carboxylic acid], the “Inhibition” value on PAPD5 [2] was “+”. Further, the ΔTm at 100 µM on PAPD5 [1] was determined as 5.5 °C. In the case of `NS(=O)(=O)c1cnc2ccc(-c3cccc4ncoc34)cc2c1Nc1ccccc1C(=O)O` [Compound 64A, 2-[[6-(1,3-benzoxazol-7-yl)-3-sulfamoyl-4-quinolyl]amino]benzoic acid], the ΔTm at 100 µM at PAPD5 [1] was 6.3 °C.

For the compound `COCCCOc1cc2ncc(C#N)c(-n3ccc(=O)c(C(=O)O)c3)c2cc1OC` [Compound 56A, 1-[3-cyano-6-methoxy-7-(3-methoxypropoxy)-4-quinolyl]-4-oxo-pyridine-3-carboxylic acid], at PAPD5 [2], the “Inhibition” value came to 0. Also, at PAPD5 [1], the ΔTm at 100 µM was 0.4 °C.

Turning to `COc1cccc(Nc2c(S(=O)(=O)N3CCOCC3)cnc3ccc(Br)cc23)c1C(=O)O` [Compound 78A-INT, 2-[(6-bromo-3-morpholinosulfonyl-4-quinolyl)amino]-6-methoxy-benzoic acid], the “Inhibition” value on PAPD5 [2] is 0. Further, the ΔTm at 100 µM at PAPD5 [1] came out at 1.1 °C. `CCOC(=O)c1cnc2ccc(OC3CCNCC3)cc2c1Nc1ccccc1C(=O)O` [Compound 19A, 2-[[3-ethoxycarbonyl-6-(4-piperidyloxy)-4-quinolyl]amino]benzoic acid]: at PAPD5 [2], the “Inhibition” value is 0. Also, the ΔTm at 100 µM at PAPD5 [1] was 0.6 °C. For the compound `NS(=O)(=O)c1cnc2ccc(Cl)cc2c1Nc1ccccc1C(=O)O` [Compound 63A, 2-[(6-chloro-3-sulfamoyl-4-quinolyl)amino]benzoic acid], the “Inhibition” value on PAPD5 [2] is listed as “+++”. Also, the ΔTm at 100 µM at PAPD5 [1] was 9.3 °C. For `CCOC(=O)c1cnc2ccc(OC(F)(F)F)cc2c1Nc1ccccc1S(=O)(=O)NCC(F)(F)F` [Compound 34A, ethyl 4-[2-(2,2,2-trifluoroethylsulfamoyl)anilino]-6-(trifluoromethoxy)quinoline-3-carboxylate], at PAPD5 [2], the “Inhibition” value stood at 0. At PAPD5 [1], the ΔTm at 100 µM was found to be 0.3 °C. As to `O=C(O)c1c(O)cccc1Nc1c(S(=O)(=O)N2CCOCC2)cnc2ccc(Br)cc12` [Compound 78A, 2-[(6-bromo-3-morpholinosulfonyl-4-quinolyl)amino]-6-hydroxy-benzoic acid], the “Inhibition” value on PAPD5 [2] is reported as “+++”. Moreover, on PAPD5 [1], the ΔTm at 100 µM is 17.1 °C. As for `COc1cccc(Nc2c(S(=O)(=O)N3CCOCC3)cnc3ccc(Cl)cc23)c1C(=O)O` [Compound 79A-INT, 2-[(6-chloro-3-morpholinosulfonyl-4-quinolyl)amino]-6-methoxy-benzoic acid], the ΔTm at 100 µM on PAPD5 [1] turned out to be 0 °C. In the case of `COCCCOc1cc2ncc(C#N)c(Nc3cccc(O)c3C(=O)O)c2cc1OC` [Compound 55A, 2-[[3-cyano-6-methoxy-7-(3-methoxypropoxy)-4-quinolyl]amino]-6-hydroxy-benzoic acid], on PAPD5 [2], the “Inhibition” value is recorded as “+++”. On PAPD5 [1], the ΔTm at 100 µM amounted to 13.9 °C. In the case of `NS(=O)(=O)c1cnc2ccc(OC(F)(F)F)cc2c1Nc1ccccc1C(=O)O` [Compound 16A, 2-[[3-sulfamoyl-6-(trifluoromethoxy)-4-quinolyl]amino]benzoic acid], on PAPD5 [2], the “Inhibition” value is on record as “+++”. In addition, the ΔTm at 100 µM at PAPD5 [1] amounted to 9.6 °C. On to `O=c1c2cnc3ccc(OC(F)(F)F)cc3c2[nH]c2ccnn12` [Compound 30A, 6-(trifluoromethoxy)-14,15,16,17-tetrazatetracycloheptadeca-(6),1(7),2(8),3(15),4(9),5(16),10-heptaen-12-one], for which the “Inhibition” value on PAPD5 [2] is recorded as 0. Also, the ΔTm at 100 µM on PAPD5 [1] came to 1.7 °C.

Consider `Nc1cccc(Nc2c(S(=O)(=O)N3CCOCC3)cnc3ccc(Br)cc23)c1C(=O)O` [Compound 85A-BP, 2-amino-6-[(6-bromo-3-morpholinosulfonyl-4-quinolyl)amino]benzoic acid], for which, at PAPD5 [1], the ΔTm at 100 µM worked out at 6.8 °C. With `CCOC(=O)c1cnc2ccc(OC(F)(F)F)cc2c1Nc1scnc1C(=O)O` [Compound 5A, 5-((3-(ethoxycarbonyl)-6-(trifluoromethoxy)quinolin-4-yl)amino)thiazole-4-carboxylic acid], on PAPD5 [2], the “Inhibition” value came to 0. The ΔTm at 100 µM on PAPD5 [1] was 2.3 °C.

For the compound `O=C(O)c1cccn2c(=O)c3cnc4ccc(OC(F)(F)F)cc4c3nc12` [Compound 27A, 14-oxo-7-(trifluoromethoxy)-17,18,19-triazatetracyclooctadeca-(4),1(8),2(7),3(9),5(10),6(17),11,13(18)-octaene-8-carboxylic acid], the “Inhibition” value on PAPD5 [2] is 0. Also, at PAPD5 [1], the ΔTm at 100 µM was found to be 2.8 °C. `CCOC(=O)c1cnc2ccc(OC(F)(F)F)cc2c1Nc1ccccc1C#N` [Compound 25A, ethyl 4-(2-cyanoanilino)-6-(trifluoromethoxy)quinoline-3-carboxylate]: the “Inhibition” value on PAPD5 [2] was determined as 0. In addition, the shift in melting temperature (ΔTm) at 100 µM at PAPD5 [1] amounted to 0.1 °C. Regarding `O=C(O)c1ccccc1Nc1c(C(=O)N2CCNCC2)cnc2ccc(OC(F)(F)F)cc12` [Compound 14A, 2-[[3-(piperazine-1-carbonyl)-6-(trifluoromethoxy)-4-quinolyl]amino]benzoic acid], on PAPD5 [2], the “Inhibition” value is listed as “++”. Further, the thermal shift (ΔTm) at 100 µM at PAPD5 [1] is 1.7 °C. For `CCOC(=O)c1cnc2ccc(C(=O)N3CCNCC3)cc2c1Nc1ccccc1C(=O)O` [Compound 18A, 2-[[3-ethoxycarbonyl-6-(piperazine-1-carbonyl)-4-quinolyl]amino]benzoic acid], the “Inhibition” value on PAPD5 [2] is 0. Besides, on PAPD5 [1], the ΔTm at 100 µM was -0.1 °C.

With `CCOC(=O)c1cnc2ccc(Br)cc2c1Nc1ccccc1C(=O)O` [Compound 26A, 2-[(6-bromo-3-ethoxycarbonyl-4-quinolyl)amino]benzoic acid], the “Inhibition” value at PAPD5 [2] is recorded as “+++”. Moreover, the ΔTm at 100 µM at PAPD5 [1] is 11.1 °C.

On to `CC(=O)Nc1cccc(Nc2c(S(=O)(=O)N3CCOCC3)cnc3ccc(Br)cc23)c1C(=O)O` [Compound 85A, 2-acetamido-6-[(6-bromo-3-morpholinosulfonyl-4-quinolyl)amino]benzoic acid], for which the thermal shift (ΔTm) at 100 µM on PAPD5 [1] is 0 °C. In the case of `N#Cc1cnc2ccc(OC(F)(F)F)cc2c1Nc1ccccc1C(=O)O` [Compound 15A, 2-[[3-cyano-6-(trifluoromethoxy)-4-quinolyl]amino]benzoic acid], the ΔTm at 100 µM at PAPD5 [1] came out at 8.8 °C.

In the case of `O=C(O)c1c(O)cccc1Nc1c(-c2ncco2)cnc2ccc(Cl)cc12` [Compound 82A, 2-[(6-chloro-3-oxazol-2-yl-4-quinolyl)amino]-6-hydroxy-benzoic acid], the “Inhibition” value on PAPD5 [2] is given as “+++”. On PAPD5 [1], the ΔTm at 100 µM is 13.5 °C. For `COCCCOc1cc2ncc(C(=O)N(C)C)c(Nc3ccccc3C(=O)O)c2cc1Br` [Compound 57A, 2-[[6-bromo-3-(dimethylcarbamoyl)-7-(3-methoxypropoxy)-4-quinolyl]amino]benzoic acid], in that order: “+++” and 9.8 °C. For the compound `O=C(O)c1ccccc1Nc1c(-c2ncco2)cnc2ccc(OC(F)(F)F)cc12` [Compound 17A, 2-[[3-oxazol-2-yl-6-(trifluoromethoxy)-4-quinolyl]amino]benzoic acid], the “Inhibition” value at PAPD5 [2] is given as “+++”. For the same compound, the thermal shift (ΔTm) at 100 µM at PAPD5 [1] is 8.4 °C. As for `NS(=O)(=O)c1cnc2ccc(Br)cc2c1Nc1ccccc1C(=O)O` [Compound 61A, 2-[(6-bromo-3-sulfamoyl-4-quinolyl)amino]benzoic acid], on PAPD5 [2], the “Inhibition” value is reported as “+++”. Further, on PAPD5 [1], the ΔTm at 100 µM came to 11.1 °C. As for `CN(C)C(=O)c1cnc2ccc(OC(F)(F)F)cc2c1Nc1ccccc1C(=O)O` [Compound 12A, 2-[[3-(dimethylcarbamoyl)-6-(trifluoromethoxy)-4-quinolyl]amino]benzoic acid], the “Inhibition” value on PAPD5 [2] is “+”. For the same compound, the ΔTm at 100 µM at PAPD5 [1] was determined as 6.1 °C. For the compound `O=C(O)c1c(Nc2c(S(=O)(=O)N3CCOCC3)cnc3ccc(Br)cc23)ccc(Br)c1O` [Compound 78A-BR, 3-bromo-6-[(6-bromo-3-morpholinosulfonyl-4-quinolyl)amino]-2-hydroxy-benzoic acid], the “ΔTm 100 μM” value on PAPD5 [1] is given as “fluorescent”.

The values above are taken from patent US12486234B2, “PAPD5 inhibitors and methods of use thereof” (Children's Medical Center Corporation, priority 2019, dated 2025).
